Reference: patent US10077237B2 (Sanofi, priority 2013, dated 2018)
pEC50: −log10 of the molar value. “And” between values parts separate entries of the source, which are not always exact repeats. Identical values can stand only once. Counter-ions that a name gives are not always drawn.

Target: T1, recombinant human AMPK complex, containing α2β1γ2 (Homo sapiens, UniProt P54646+Q9Y478)
T1 construct: hsAMPKα2-552-His, hsAMPKβ1-2-270 and hsAMPKγ-2-569 respectively; hsAMPKβ1-2-270; hsAMPKγ-2-569; His (C); made in house; host or cells: Spodoptera frugiperda Sf21 (baculovirus)
Assay: AMPK in vitro activation assay (HTRF)
Type: biochemical
Conditions: for pEC50: HTRF, recombinant human α2β1γ2 AMPK, 200 μM ATP, biotinylated ACC-CREBp peptide, repeat determinations on separate lines; for Emax: potentiation of AMPK activity as percent over the basal signal (without compound)
In short: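 Sf21-expressed, Ni-NTA partially purified α2β1γ2 complex preincubated 30 min at room temperature with compound (0.5% DMSO) in HEPES pH 7.0, MgCl2, DTT. Reaction was started with a solution holding 200 μM ATP and 2 or 0.08 μM biotinylated ACC-CREBp peptide, run 45 min at 37° C, then read by HTRF with anti-pS133-CREB; EC50 from percent over basal.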

T1 sequence (P54646 2-552): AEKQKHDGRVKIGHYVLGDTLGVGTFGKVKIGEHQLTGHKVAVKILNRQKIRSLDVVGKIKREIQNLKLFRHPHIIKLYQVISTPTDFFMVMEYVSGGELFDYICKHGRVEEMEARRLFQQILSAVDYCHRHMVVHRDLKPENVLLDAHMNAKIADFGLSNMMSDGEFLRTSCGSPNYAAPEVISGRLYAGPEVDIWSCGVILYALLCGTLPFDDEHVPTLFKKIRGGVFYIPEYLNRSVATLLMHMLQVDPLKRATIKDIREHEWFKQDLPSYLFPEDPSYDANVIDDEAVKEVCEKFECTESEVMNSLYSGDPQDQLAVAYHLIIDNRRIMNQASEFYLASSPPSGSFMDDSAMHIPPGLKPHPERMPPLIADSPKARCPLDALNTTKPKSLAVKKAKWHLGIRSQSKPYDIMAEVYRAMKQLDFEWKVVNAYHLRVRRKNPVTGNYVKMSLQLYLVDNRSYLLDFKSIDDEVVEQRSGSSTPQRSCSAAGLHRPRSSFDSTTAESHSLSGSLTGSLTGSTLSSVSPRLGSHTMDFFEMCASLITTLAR
T1 sequence (Q9Y478 2-270): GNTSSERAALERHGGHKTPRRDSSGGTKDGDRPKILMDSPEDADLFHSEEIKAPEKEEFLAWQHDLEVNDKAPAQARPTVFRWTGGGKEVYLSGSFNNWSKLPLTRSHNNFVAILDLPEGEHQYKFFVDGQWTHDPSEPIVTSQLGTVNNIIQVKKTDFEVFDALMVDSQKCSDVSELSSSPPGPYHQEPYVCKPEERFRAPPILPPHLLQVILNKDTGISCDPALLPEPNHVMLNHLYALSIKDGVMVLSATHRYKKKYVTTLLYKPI
T1 sequence (Q9UGJ0 2-569 partner limits assumed): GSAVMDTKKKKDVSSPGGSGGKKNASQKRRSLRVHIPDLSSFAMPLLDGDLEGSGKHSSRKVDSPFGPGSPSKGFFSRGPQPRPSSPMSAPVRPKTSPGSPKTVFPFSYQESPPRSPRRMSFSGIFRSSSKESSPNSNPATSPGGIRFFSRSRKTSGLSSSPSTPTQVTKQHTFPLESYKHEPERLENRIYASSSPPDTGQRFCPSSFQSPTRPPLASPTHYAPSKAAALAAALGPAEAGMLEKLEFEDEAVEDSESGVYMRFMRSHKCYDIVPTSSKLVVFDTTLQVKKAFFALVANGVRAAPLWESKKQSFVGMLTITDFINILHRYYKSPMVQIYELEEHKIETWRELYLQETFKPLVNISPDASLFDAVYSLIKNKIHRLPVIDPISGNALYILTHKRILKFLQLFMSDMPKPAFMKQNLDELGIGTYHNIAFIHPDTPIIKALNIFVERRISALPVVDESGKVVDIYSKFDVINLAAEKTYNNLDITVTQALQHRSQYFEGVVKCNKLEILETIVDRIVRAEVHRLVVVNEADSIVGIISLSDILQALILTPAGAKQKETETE

| pEC50 | Emax | SMILES |
| --- | --- | --- |
| 8.52 | 196% | COc1ccc(C(O)=C2C(=O)Nc3cc(Cl)c(-c4ccc(C5(CO)CC5)cc4)cc32)c(OC)c1 [Compound 163, 6-chloro-3-[(2,4-dimethoxyphenyl)hydroxy-methylene]-5-[4-[1-(hydroxymethyl)cyclopropyl]phenyl]indolin-2-one] |
| 7.96 | 129% | COc1cccc(-c2ccc(-c3cc4c(cc3Cl)NC(=O)C4=C(O)c3cnc(C)s3)cc2)c1O [Compound 51, 6-Chloro-5-(2′-hydroxy-3′-methoxy-biphenyl-4-yl)-3-[1-hydroxy-1-(2-methyl-thiazol-5-yl)-methylidene]-1,3-dihydro-indol-2-one] |
| 8.52 | 192% | COc1cc(C(O)=C2C(=O)Nc3cc(Cl)c(-c4ccc(C5=CCOCC5)cc4)cc32)on1 [Compound 67, 6-Chloro-5-[4-(3,6-dihydro-2H-pyran-4-yl)phenyl]-3-[1-hydroxy-1-(3-methoxy-isoxazol-5-yl)methylidene]-1,3-dihydro-indol-2-one] |
| 7.02 | 257% | COc1cc(C(O)=C2C(=O)Nc3cc(Cl)c(-c4cnc(N(C)C)nc4)cc32)on1 [Compound 145, 6-chloro-5-[2-(dimethylamino)pyrimidin-5-yl]-3-[hydroxy-(3-methoxyisoxazol-5-yl)methylene]indolin-2-one] |
| 6.72 | 135% | N#Cc1cccc(C(O)=C2C(=O)Nc3cc(Cl)c(-c4ccc(N5CCOCC5)cc4)cc32)c1 [Compound 18, 3-{[6-Chloro-5-(4-morpholin-4-yl-phenyl)-2-oxo-1,2-dihydro-indolylidene]-hydroxy-methyl}-benzonitrile] |
| 8.40 | 172% | COc1cc(C(O)=C2C(=O)Nc3cc(Cl)c(-c4ccc(C(CO)CO)cc4)cc32)on1 [Compound 121, 6-chloro-5-[4-[2-hydroxy-1-(hydroxymethyl)ethyl]phenyl]-3-[hydroxy-(3-methoxyisoxazol-5-yl)methylene]indolin-2-one] |
| 9.00 | 158% | COc1cc(C(O)=C2C(=O)Nc3cc(Cl)c(-c4ccc(N(C)C)cc4F)cc32)on1 [Compound 148, 6-chloro-5-[4-(dimethylamino)-2-fluoro-phenyl]-3-[hydroxy-(3-methoxyisoxazol-5-yl)methylene]indolin-2-one] |
| 7.89 | 207% | CC(C)Oc1cc(C(O)=C2C(=O)Nc3cc(Cl)c(-c4ccc(C5CC(O)C5)cc4)cc32)on1 (centres unmarked) [Compound 166, 6-chloro-5-[4-(3-hydroxycyclobutyl)phenyl]-3-[hydroxy-(3-isopropoxyisoxazol-5-yl)methylene]indolin-2-one] |
| 6.20 | 156% | O=C1Nc2cc(Cl)c(-c3ccc(N4CCOCC4)cc3)cc2C1=C(O)c1cccc(Cl)c1 [Compound 34, 6-Chloro-3-[1-(3-chloro-phenyl)-1-hydroxy-methylidene]-5-(4-morpholin-4-yl-phenyl)-1,3-dihydro-indol-2-one] |
| 7.05 | 127% | Cc1ncc(C(O)=C2C(=O)Nc3cc(Cl)c(-c4ccc(N(C)C)cc4)cc32)s1 [Compound 10, 6-Chloro-5-(4-dimethylamino-phenyl)-3-[1-hydroxy-1-(2-methyl-thiazol-5-yl)-methylidene]-1,3-dihydro-indol-2-one] |
| 7.20 | 159% | Cc1cc(C(O)=C2C(=O)Nc3cc(Cl)c(-c4ccc(OCc5ncccn5)cc4)cc32)on1 [Compound 101, 6-chloro-3-[hydroxy-(3-methylisoxazol-5-yl)methylene]-5-[4-(pyrimidin-2-ylmethoxy)phenyl]indolin-2-one] |
| 8.22 | 239% | O=C1Nc2cc(Cl)c(-c3ccc(C4(CO)CC4)cc3)cc2C1=C(O)c1cncc(F)c1 [Compound 142, 6-chloro-3-[(5-fluoro-3-pyridyl)hydroxy-methylene]-5-[4-[1-(hydroxymethyl)cyclopropyl]phenyl]indolin-2-one] |
| 7.54 | 245% | O=C1Nc2cc(Cl)c(-c3ccc(N4CCOCC4)cc3)cc2C1=C(O)c1ccno1 [Compound 59, 6-Chloro-3-[1-hydroxy-1-isoxazol-5-yl-methylidene]-5-(4-morpholin-4-yl-phenyl)-1,3-dihydro-indol-2-one] |
| 6.95 | 213% | Cc1cc(C(O)=C2C(=O)Nc3cc(Cl)c(-c4ccc(N5CCN(C)CC5)cc4)cc32)on1 [Compound 74, 6-Chloro-3-[1-hydroxy-1-(3-methyl-isoxazol-5-yl)methylidene]-5-[4-(4-methyl-piperazin-1-yl)-phenyl]-1,3-dihydro-indol-2-one, hydrochloride] |
| 8.52 | 230% | O=C1Nc2cc(Cl)c(-c3ccc(C4(CO)CC4)cc3)cc2C1=C(O)c1ccc(F)c(F)c1 [Compound 143, 6-chloro-3-[(3,4-difluorophenyl)hydroxy-methylene]-5-[4-[1-(hydroxymethyl)cyclopropyl]phenyl]indolin-2-one] |
| 8.30 | 187% | COc1cc(C(O)=C2C(=O)Nc3cc(Cl)c(-c4ccc(OCCCN5CCOCC5)cc4)cc32)on1 [Compound 99, 6-chloro-3-[hydroxy-(3-methoxyisoxazol-5-yl)methylene]-5-[4-(3-morpholinopropoxy)phenyl]indolin-2-one] |
| 9.52 and 9.70 | – | COc1cc(C(O)=C2C(=O)Nc3cc(Cl)c(-c4ccc(C5(CO)CC5)c(F)c4)cc32)on1 [Compound 96, 6-chloro-5-[3-fluoro-4-[1-(hydroxymethyl)cyclopropyl]phenyl]-3-[hydroxy-(3-methoxyisoxazol-5-yl)methylene]indolin-2-one] |
| 9.00 | 181% | COc1cc(C(O)=C2C(=O)Nc3cc(Cl)c(-c4ccc(OCCCN(C)C)cc4)cc32)on1 [Compound 173, 6-chloro-5-[4-[3-(dimethylamino)propoxy]phenyl]-3-[hydroxy-(3-methoxyisoxazol-5-yl)methylene]indolin-2-one] |
| 6.85 | 112% | O=C1Nc2cc(Cl)c(-c3ccc(N4CCOCC4)cc3)cc2C1=C(O)c1ccccc1F [Compound 32, 6-Chloro-3-[1-(2-fluoro-phenyl)-1-hydroxy-methylidene]-5-(4-morpholin-4-yl-phenyl)-1,3-dihydro-indol-2-one] |
| 9.40 | 272% | Cc1ccc(C(O)=C2C(=O)Nc3cc(Cl)c(-c4ccc(C5(CO)CC5)cc4)cc32)s1 [Compound 123, 6-chloro-5-[4-[1-(hydroxymethyl)cyclopropyl]phenyl]-3-[hydroxy-(5-methyl-2-thienyl)methylene]indolin-2-one] |
| 7.57 | 132% | COc1cccc(-c2ccc(-c3cc4c(cc3Cl)NC(=O)C4=C(O)c3cc(C)ns3)cc2)c1O [Compound 42, 6-Chloro-5-(2′-hydroxy-3′-methoxy-biphenyl-4-yl)-3-[1-hydroxy-1-(3-methyl-isothiazol-5-yl)-methylidene]-1,3-dihydro-indol-2-one] |
| 7.44 | 104% | Cc1[nH]c(=O)sc1C(O)=C1C(=O)Nc2cc(Cl)c(-c3ccc(N4CCOCC4)cc3)cc21 [Compound 107, 5-[-[6-chloro-5-(4-morpholinophenyl)-2-oxo-indolin-3-ylidene]-hydroxy-methyl]-4-methyl-3H-thiazol-2-one] |
| 8.22 | 181% | O=C1Nc2cc(Cl)c(-c3ccc(C4(CO)CC4)cc3)cc2C1=C(O)c1cc2cc(Cl)ccc2o1 [Compound 170, 6-chloro-3-[(5-chlorobenzofuran-2-yl)hydroxy-methylene]-5-[4-[1-(hydroxymethyl)cyclopropyl]phenyl]indolin-2-one] |
| 5.40 | 95% | O=C1Nc2cc(Cl)c(-c3ccc4ccccc4c3)cc2C1=C(O)c1cccc(F)c1 [Compound 11, 6-Chloro-3-[1-(3-fluoro-phenyl)-1-hydroxy-methylidene]-5-naphthalen-2-yl-1,3-dihydro-indol-2-one] |
| 8.40 | 193% | COc1cccc(-c2ccc(-c3cc4c(cc3Cl)NC(=O)C4=C(O)c3cc(C)no3)cc2)c1O [Compound 5, 6-Chloro-5-(2′-hydroxy-3′-methoxy-biphenyl-4-yl)-3-[1-hydroxy-1-(3-methyl-isoxazol-5-yl)-meth-ylidene]-1,3-dihydro-indol-2-one] |
| 7.92 and 8.30 | – | Cc1cc(C(O)=C2C(=O)Nc3cc(Cl)c(-c4ccc(N5CCOCC5)cc4)cc32)sn1 [Compound 13, 6-Chloro-3-[1-hydroxy-1-(3-methyl-isothiazol-5-yl)-methylidene]-5-(4-morpholin-4-yl-phenyl)-1,3-dihydro-indol-2-one] |
| 9.00 | 142% | Cc1ncc(C(O)=C2C(=O)Nc3cc(Cl)c(-c4ccc(C5(CO)CC5)cc4)cc32)s1 [Compound 75, 6-Chloro-5-[4-(1-hydroxymethyl-cyclopropyl)phenyl]-3-[1-hydroxy-1-(2-methyl-thiazol-5-yl)methylidene]-1,3-dihydro-indol-2-one] |
| 7.85 | 150% | O=C1Nc2cc(Cl)c(-c3ccc(N4CCOCC4)cc3)cc2C1=C(O)c1cccc(N2CCOCC2)c1 [Compound 94, 6-chloro-3-[hydroxy-(3-morpholinophenyl)methylene]-5-(4-morpholinophenyl)indolin-2-one] |
| 7.64 | 151% | Cc1cc(C(O)=C2C(=O)Nc3cc(Cl)c(-c4ccc(-c5ccncc5)cc4)cc32)on1 [Compound 35, 6-Chloro-3-[1-hydroxy-1-(3-methyl-isoxazol-5-yl)-methylidene]-5-(4-pyridin-4-yl-phenyl)-1,3-dihydro-indol-2-one, hydrochloride] |
